Measurements: patent US20100034874A1, “LIPOSOME ENCAPSULATING AMMINE-PLATINUM COMPLEX AT HIGH CONCENTRATION, AND METHOD FOR PRODUCTION OF THE LIPOSOME” (KATAYAMA CHEMICAL INDUSTRIES CO., LTD., priority 2006, published 2010)

Assays:
[1] = system: Ehrlich ascites cancer cells (EAT cells) tumor; experiment: Accumulation at cancerous site: platinum content in removed tumor by FAAS; format: in vivo, mouse (Balb/c); details: 1.7 mg/kg body weight, caudal vein, n=1
Protocol: 1×10^6 Ehrlich ascites cancer cells (EAT cells) (ATCC Number: CCl^−77TME (Ehrlich-Letter ascites)) were transplanted subcutaneously into the right femoral region of a 6-week old mouse (Balb/c, female) (n=1) and the following test was performed after 10 days. A cis-diamine dichloroplatinum (II)-containing sialyl Lewis X-modified liposome and a control of pure cis-diamine dichloroplatinum (II) were administered respectively into the caudal vein of a mouse in an amount of 150 μl, i.e. 1.7 mg/kg body weight (226 μg/ml). The resulting tumor was removed, 48 and 96 hours after administration. 0.1 g of the removed tumor tissue (0.2 to 1.0 g) was added to 1 ml of conc. nitric acid, and the mixture was agitated for 5 minutes. After static storage for 1 hour, the mixture was heated at […] in a water bath and then cooled to room temperature. 300 μl of distilled water was added to 100 μl of the nitric 5 acid-treated solution. The content of platinum therein was determined by flameless atomic absorption spectroscopy (FAAS: AA-6700 Atomic absorption flame emission spectrophotometer SIMAZU), and the platinum contents in 1 g of tumor were compared between the sample and the control. […]

[2] = system: Ehrlich ascites cancer cells (EAT cells); experiment: Cell proliferation-inhibiting activity (MTT assay, WST-8 reagent); format: cell-based; details: 48 hours, no sample 0.480, n=3
Protocol: Ehrlich ascites cancer cells (EAT cells) (ATCC Number: CCl^−77TME (Ehrlich-Letter ascites)) were inoculated at 1×10^3 cell/100 μl/well (Falcon3072), and a sample was added after culture for 24 hours. The samples were prepared by diluting the cis-diamine dichloroplatinum (II)-containing unmodified liposome, the cis-diamine dichloroplatinum (II)-containing sialyl Lewis X liposome, and the cis-diamine dichloroplatinum (II)-containing anti-E-selectin antibody-modified liposome, with DMEM buffer solution (Dulbeccos's Ham Modified Eagle liquid medium, low glucose SIGMA D6046)/10% FBS (fetal calf serum SIGMA F0926)/penicillin 100 unit/ml-streptomycin 100 μg/ml (antibiotic antimycotic solution, stabilized SIGMA A5955)) to a cis-diamine dichloroplatinum (II) amount of 10 μg/ml. […] The cell count, 48 hours after addition was determined by the MTT assay of using the formazan amount as an indicator.
In addition, a solution containing only added DMEM/10% FBS was analyzed by the MTT assay as a control containing no sample.
A cell count-measuring reagent WST-8 (Kishida Chemical) was added to each well in an amount of 20 μl, and the absorbance thereof at 450 nm was determined after 2 hours. The absorbance was determined by using GE Healthcare Ultrospec-6300. […]

[3] = system: Ehrlich ascites cancer cells (EAT cells); experiment: Tumor proliferation-inhibiting activity (tumor volume); format: in vivo, mouse (Balb/c); details: 1.5 mg/kg caudal vein on days 5, 12, 19, n=3
Protocol: 1×10^6 Ehrlich ascites cancer cells (EAT cells) (ATCC Number: CCl^−77TME (Ehrlich-Letter ascites)) were transplanted subcutaneously into right femoral region of 6-week old mice (Balb/c, female) (n=3), and the following tests were performed after 10 days. The cis-diamine dichloroplatinum (II)-containing sialyl Lewis X-modified liposome and the anti-E-selectin antibody-modified liposome were administered into the caudal vein of a mouse respectively in an amount of 1.5 mg/kg (200 μg/ml) on the 5th, 12th, and 19th days after transplantation. As a control, cis-diamine dichloroplatinum (II) was dissolved in physiological saline to a concentration of 200 μg/ml. The dissolved solution was administered similarly.
The size, length (A mm) and diameter (B mm), of the tumor was determined by using a digital vernier caliper (Mitsutoyo CD-S15C) on the 12th, 19th, and 29th days after tumor transplantation. The volume of the tumor (mm^3) was calculated by the following Formula: (A×B^2)×0.4.

Solubility in water = format: physicochemical
Protocol: For example, in the case of cisplatin, the solubility of cisplatin in water is 2 mg/ml (room temperature). The solubility of cisplatin nitrate is 20 mg/ml. Namely, cisplatin can be used as a platinum complex in an amount of not less than its solubility (room temperature). Ionic species forming a water-soluble or a poorly water-soluble salt with the platinum complex such as cisplatin are known in the art or can be selected properly, and thus, even if the platinum complex is that other than cisplatin, it is possible to select a platinum complex properly by considering its solubility, similarly to cisplatin. In this case, it is possible to form nitrates similarly, by adjusting the equivalent amount of silver nitrate added. In addition, concentrations of a bromide ion and an iodide ion are the same as the concentration of a chloride ion respectively; therefore, with any of these ions, the present invention can be carried out without problems. This is because the bromide ion or the iodide ion, which are higher in binding property than the chloride ion, can form a poorly water-soluble substance similarly, even when the present invention is carried out under the same conditions. Since it is believed that there is no difference in liposomal membrane permeability of each ion, the present invention can be carried out by taking these elements into consideration similarly.

[4] = Conversion of cis-diamine dinitratoplatinum (II) to cis-diamine dichloroplatinum (II) in 150 mM sodium chloride (UV absorption spectrum); format: physicochemical
Protocol: Five mg/ml of cis-diamine dinitratoplatinum (II) was dissolved in a TAPS buffer solution containing 150 mM of sodium chloride (pH: 8.4); the solution was stationarily placed at 25° C.; and the UV spectrum of the solution was determined over time (0 minute, 5 minutes, 10 minutes, 15 minutes, 30 minutes and 45 minutes). One mg of cis-diamine dichloroplatinum (II) was dissolved in 1 ml of sodium chloride-containing TAPS buffer solution, to give a control, and the UV spectrum thereof was obtained. […] There was no change in UV spectrum, when the sample was stored without movement for 45 minutes or more. […] This probably occurs because the presence of NaCl leads to the conversion of cis-diamine dinitratoplatinum (II) to the hardly water-soluble cis-diamine dichloroplatinum (II) and the subsequent precipitation of the latter.
Replacement of the nitrate ion of cis-diammine dinitratoplatinum (II) with the chloride ion in the 150 mM sodium chloride solution was studied by absorption spectroscopic method (Comparative Example 1 and FIGS. 4A and 4B).

[5] = cited from earlier work

| SMILES | Platinum concentration (ng/g tissue) in tumor ([1]; 48 hours after administration) [ng/g tissue] | Platinum concentration (ng/g tissue) in tumor ([1]; 96 hours after administration) [ng/g tissue] | Average absorbance (450 nm) ([2]; sample final concentration 8.30 μM) | Average absorbance (450 nm) ([2]; sample final concentration 16.60 μM) | Average tumor volume ([3]; Day 12 after tumor transplantation) [mm^3] | Average tumor volume ([3]; Day 19 after tumor transplantation) [mm^3] | Average tumor volume ([3]; Day 29 after tumor transplantation) [mm^3] | solubility in water relative to cis-diamine dichloroplatinum (II) (Solubility in water) | time for conversion to cis-diamine dichloroplatinum (II) ([4]; TAPS containing 150 mM NaCl, pH 8.4, 25° C., 5 mg/ml) [min] | fraction converted to cis-diamine dichloroplatinum (II) ([4]; in the presence of 150 mM sodium chloride) [%] | solubility of cisplatin nitrate [5] [mg/mL] |
| --- | --- | --- | --- | --- | --- | --- | --- | --- | --- | --- | --- |
| N.N.[Cl][Pt][Cl] [Cisplatin, cis-diammine dichloroplatinum (II)] | 361 | 49 | 0.045 | 0.027 | 63 | 63 | 501 |  |  |  |  |
| [NH2][Pt]([NH2])([O][N+](=O)[O-])[O][N+](=O)[O-] [CDDP-3, cis-diammine dinitratoplatinum (II)] |  |  |  |  |  |  |  | approximately 10 times | 45 | ≥ 99 | 20 |
